Measurements published in US11642332B2, “(2R,4R)-5-(5′-chloro-2′-fluorobiphenyl-4-yl)-2-hydroxy-4-[(5-methyloxazole-2-carbonyl)amino]pentanoic acid” (THERAVANCE BIOPHARMA R&D IP, LLC, priority 2015, dated 2023).

Assays:
[1] = Renal excretion of Compound 1 in rat; format: in vivo, male Sprague Dawley rats; details: IV 0.5 mg/kg
Description: (§1) An important factor for insuring appropriate long term drug dosing and correct steady-state drug concentrations in patients is drug clearance. In general, decreased drug clearance results in higher drug concentrations and greater drug effects. In order to understand renal clearance of Compound 1, the percent of administered dose recovered in urine following a single IV dose was assessed in three animal species. Three separate studies in male Sprague Dawley rats, male beagle dogs and male cynomolgus monkeys, respectively, were conducted and the procedure and experimental results are described below.
Male Sprague Dawley rats (N=3), having body weights of 0.348 to 0.362 kg, received an IV dose of Compound 1 at 0.5 mg/kg as part of a dosing cassette. Compound 1 was dissolved in 5% NaHCO3 in D5W (5% dextrose in water, pH 7.4) and filtered through a […] polyvinyl difluoride (PVDF) syringe filter prior to administration. The rats had access to food ad libitum before and after administration of Compound 1. Urine samples were collected in metabolic cages and maintained on frozen dry ice during collection. The samples were thawed and the volume of the urine was recorded. An aliquot of the urine sample was transferred to a polypropylene storage tube, frozen and stored (−80° C.) prior to bioanalysis.
Rat urine concentrations of Compound 1 were determined by LC/MS/MS. […]

[2] = Renal excretion of Compound 1 in dog; format: in vivo, male beagle dogs; details: for Urinary Excretion (approximate % of administered dose excreted in urine) Mean: 0-24 hrs
Description: as §1
Male beagle dogs (N=6, two groups of 3), having body weights of 9.04-10.2 kg and 10.8-11.5 kg, received an IV dose of Compound 1 at 0.1 mg/kg (Group I) and 1.255 mg/kg (Group II) as part of a dosing cassette. Compound 1 was dissolved in PEG-200:ethanol:water (40:10:50) and filtered through a […] polyvinyl difluoride (PVDF) syringe filter prior to administration. The dogs had access to food ad libitum before and after administration of Compound 1. Urine samples were collected on cold packs into pre-weighed containers that were prefilled with 0.5 mL glacial acetic acid. The samples were weighed again and additional glacial acetic acid was added if needed to a final concentration of 2%. The samples were frozen and stored (−80° C.) prior to bioanalysis.
Dog urine concentrations of Compound 1 were determined by LC/MS/MS. Urine study samples (diluted in plasma K2EDTA(1:9)) were vortexed and 25 μL was placed in a 96-well plate. The samples were extracted with 100 μL in acetonitrile with internal standard Glyburide. The extract was centrifuged for 5 minutes at 3100 RPM and 75 μL of supernatant was transferred and mixed with 150 μL water. Samples (12 μL) were injected on a Waters Acquity UPLC BEH C18 (50×2.1 mm, 1.7 μm) column with a flow rate of 0.9 mL/min. Mobile phase A consisted of 95:5:0.1 (v:v:v) water:acetonitrile:formic acid and mobile phase B consisted of 50:50:0.1 (v:v:v) methanol:acetonitrile:formic acid. The gradient elution started with 35% to 90% B from 0.2 to 1.6 min, held at 95% from 1.7 to 2.2 min., followed by a step of 95% to 35% B from 2.20 to 2.30 min. Compound 1 assay range was 0.000100 to 1.00 μg/mL.
The mean amount of urine excreted over a collection period of 24 hrs and the approximate % of administered dose excreted in urine is reported in the table below.

Amount of Compound 1 Excreted in Urine over Collection Period (0-24 hrs) Mean [1]: 0.0462 µg
Amount of Compound 1 Excreted in Urine over Collection Period (0-24 hrs) Mean ([2]; IV 0.1 mg/kg): 15.8 µg
Urinary Excretion (approximate % of administered dose excreted in urine) Mean ([2]; IV 0.1 mg/kg): 0.92%
Amount of Compound 1 Excreted in Urine over Collection Period (0-24 hrs) Mean ([2]; IV 1.26 mg/kg): 103 µg
Urinary Excretion (approximate % of administered dose excreted in urine) Mean ([2]; IV 1.26 mg/kg): 1.67%
SMILES: Cc1cnc(C(=O)N[C@H](Cc2ccc(-c3cc(Cl)ccc3F)cc2)C[C@@H](O)C(=O)O)o1 [Compound 1, (2R,4R)-5-(5′-Chloro-2′-fluorobiphenyl-4-yl)-2-hydroxy-4-[(5-methyloxazole-2-carbonyl)amino]pentanoic Acid]
